Measured values: ChEMBL document CHEMBL4665718, “Inhibitory effect of oolonghomobisflavan B on osteoclastogenesis by suppressing p38 MAPK activation” (Bioorg Med Chem Lett, 2020)
The source made the active and inactive calls.

Assays:
BMDM [1] = assay: Modulation of NF-kappaB in Sprague-Dawley rat BMM assessed as inhibition of M-CSF/RANKL-induced osteoclast differentiation by measuring decrease in TRAP-positive multinucleated cells at 100 uM measured after 5 days by TRAP-staining based assay relative to control; type: tissue-based; details: filed as modulator, time 5.0 day
BMDM [2] = assay: Inhibition of M-CSF-induced ERK activation in BMM (unknown origin) at 5 uM pretreated for 1 hr followed by M-CSF stimulation for 5 to 30 mins by Western blot analysis; type: tissue-based
BMDM [3] = assay: Inhibition of p38 MAPK in BMM (unknown origin) assessed as suppression of RANKL/M-CSF-induced CTSK upregulation at 5 uM measured after 3 days by Western blot analysis; type: tissue-based; details: time 3.0 day
BMDM [4] = assay: Inhibition of M-CSF-induced Akt activation in BMM (unknown origin) at 5 uM pretreated for 1 hr followed by M-CSF stimulation for 5 to 30 mins by Western blot analysis; type: tissue-based
BMDM [5] = assay: Inhibition of RANKL-induced JNK activation in BMM (unknown origin) at 5 uM pretreated for 1 hr followed by RANKL stimulation for 5 to 15 mins by Western blot analysis; type: tissue-based
[6] = target: T1, NF-kappa-B inhibitor alpha (Homo sapiens) (UniProt P25963); assay: Inhibition of RANKL-induced IkappaB-alpha activation in BMM (unknown origin) at 5 uM pretreated for 1 hr followed by RANKL stimulation for 5 to 15 mins by Western blot analysis; type: tissue-based
T1 sequence (whole entry): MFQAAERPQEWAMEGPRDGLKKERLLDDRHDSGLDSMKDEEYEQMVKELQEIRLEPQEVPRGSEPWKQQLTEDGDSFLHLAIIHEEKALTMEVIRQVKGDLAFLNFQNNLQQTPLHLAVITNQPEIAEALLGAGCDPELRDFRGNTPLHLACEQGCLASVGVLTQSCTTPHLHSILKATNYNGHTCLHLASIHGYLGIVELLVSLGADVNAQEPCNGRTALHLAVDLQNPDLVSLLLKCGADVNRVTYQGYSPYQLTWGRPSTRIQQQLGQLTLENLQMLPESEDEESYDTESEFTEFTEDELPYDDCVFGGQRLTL

BMDM [7] = assay: Inhibition of RANKL-induced Akt activation in BMM (unknown origin) at 5 uM pretreated for 1 hr followed by RANKL stimulation for 5 to 15 mins by Western blot analysis; type: tissue-based
BMDM [8] = assay: Inhibition of RANKL-induced ERK activation in BMM (unknown origin) at 5 uM pretreated for 1 hr followed by RANKL stimulation for 5 to 15 mins by Western blot analysis; type: tissue-based
BMDM [9] = assay: Inhibition of RANKL-induced p38 activation in BMM (unknown origin) at 5 uM pretreated for 1 hr followed by RANKL stimulation for 5 to 15 mins by Western blot analysis; type: tissue-based
BMDM [10] = assay: Inhibition of p38 MAPK in BMM (unknown origin) assessed as suppression of RANKL/M-CSF-induced actin ring formation at 5 uM incubated for 4 days by rhodamine phallodin/DAPI staining based analysis; details: time 4.0 day
BMDM [11] = assay: Inhibition of p38 MAPK in BMM (unknown origin) assessed as suppression of RANKL/M-CSF-induced Nftac1 gene upregulation at 5 uM measured after 3 days by RT-PCR analysis; type: tissue-based; details: time 3.0 day
BMDM [12] = assay: Inhibition of p38 MAPK in BMM (unknown origin) assessed as suppression of RANKL/M-CSF-induced Acp5 gene upregulation at 5 uM measured after 3 days by RT-PCR analysis; type: tissue-based; details: time 3.0 day
BMDM [13] = assay: Inhibition of p38 MAPK in BMM (unknown origin) assessed as suppression of RANKL/M-CSF-induced CTSK gene upregulation at 5 uM measured after 3 days by RT-PCR analysis; type: tissue-based; details: time 3.0 day
BMDM [14] = assay: Inhibition of p38 MAPK in BMM (unknown origin) assessed as suppression of RANKL/M-CSF-induced DCSTAMP gene upregulation at 5 uM measured after 3 days by RT-PCR analysis; type: tissue-based; details: time 3.0 day
BMDM [15] = assay: Inhibition of p38 MAPK in BMM (unknown origin) assessed as suppression of RANKL/M-CSF-induced MMP9 gene upregulation at 5 uM measured after 3 days by RT-PCR analysis; type: tissue-based; details: time 3.0 day
BMDM [16] = assay: Inhibition of p38 MAPK in BMM (unknown origin) assessed as suppression of RANKL/M-CSF-induced Nftac1 upregulation at 5 uM measured after 3 days by Western blot analysis; type: tissue-based; details: time 3.0 day
BMDM [17] = assay: Inhibition of p38 MAPK in BMM (unknown origin) assessed as inhibition of RANKL/M-CSF-induced osteoclast differentiation by measuring reduction in TRAP-positive multinucleated cells at 5 uM treated on day 0-4 by TRAP staining based assay; details: time 4.0 day
BMDM [18] = assay: Inhibition of p38 MAPK in BMM (unknown origin) assessed as inhibition of RANKL/M-CSF-induced osteoclast differentiation by measuring reduction in TRAP-positive multinucleated cells at 5 uM treated on day 2-4 by TRAP staining based assay relative to control; details: time 3.0 day
[19] = Cytotoxicity against BMM (unknown origin) assessed as reduction in cell viability at 5 uM after 3 days in presence of M-CSF by MTT assay; type: tissue-based; details: bmdm, 72 h, time 3 day
BMDM [20] = assay: Inhibition of p38 MAPK in BMM (unknown origin) assessed as inhibition of RANKL/M-CSF-induced osteoclast differentiation by measuring reduction in TRAP-positive multinucleated cells at 5 uM treated on day 0-2 by TRAP staining based assay relative to control; type: tissue-based; details: time 2.0 day
BMDM [21] = assay: Inhibition of p38 MAPK in BMM (unknown origin) assessed as inhibition of M-CSF/RANKL-induced osteoclastogenesis by measuring reduction in multinucleated TRAP+ cells at 5 uM measured after 4 days by TRAP-staining based analysis relative to control; type: cell-based; details: time 4.0 day
BMDM [22] = assay: Inhibition of p38 MAPK in BMM (unknown origin) assessed as inhibition of M-CSF/RANKL-induced osteoclastogenesis by measuring reduction in multinucleated TRAP+ cells measured after 4 days by TRAP-staining based analysis; type: cell-based; details: dose microM 1-5, time 4.0 day

O=C(O[C@@H]1Cc2c(O)cc(O)cc2O[C@@H]1c1cc(O)c(O)c(O)c1)c1cc(O)c(O)c(O)c1
92%: inhibition (BMDM [1])

O=C(O[C@@H]1Cc2c(cc(O)c(Cc3c(O)cc(O)c4c3O[C@H](c3cc(O)c(O)c(O)c3)[C@H](OC(=O)c3cc(O)c(O)c(O)c3)C4)c2O)O[C@@H]1c1cc(O)c(O)c(O)c1)c1cc(O)c(O)c(O)c1
34.5%: inhibition (BMDM [18])
active: inhibition (BMDM [3]) | inhibition (BMDM [9]) | inhibition (BMDM [10]) | inhibition (BMDM [11]) | inhibition (BMDM [12]) | inhibition (BMDM [13]) | inhibition (BMDM [14]) | inhibition (BMDM [15]) | inhibition (BMDM [16]) | inhibition (BMDM [17]) | inhibition (BMDM [22]) Dose-dependent effect
95.9%: inhibition (BMDM [20])
inactive: inhibition (BMDM [2]) | inhibition (BMDM [4]) | inhibition (BMDM [5]) | inhibition [6] | inhibition (BMDM [7]) | inhibition (BMDM [8])
Non-Toxic: Activity [19]
98.1%: inhibition (BMDM [21])
